By melting point is commonly meant the temperature of the solid-liquid transition. Usually solubility stands for how much of the substance goes into solution per volume. High values mean much dissolved substance, low ones little dissolved substance. As usually defined, the IC50 is the concentration that gives 50% inhibition.

SMILES strings stand for the structures. Converted amounts (≈) assume the structure as drawn. “And” between values parts separate entries of the source, which are not always exact repeats. Identical values can stand only once. Counter-ions that a name gives are not always drawn.

This note sets out measurements from patent US9403840B2, “(Poly) aminoacetamide derivatives of epipodophyllotoxin their process of preparation and their applications in therapeutics as anticancer agents” (PIERRE FABRE MEDICAMENT, priority 2004, dated 2016).

For one data set, the system named is P388 murine leukaemia. Kind of data set: P388 experimental tumour model (survival). Format: in vivo, mouse. To be noted: CD2F1 mice, P388 i.v. day 0, single intraperitoneal injection day 1; optimum dose (mg/kg) in brackets. The protocol:
The model used is P388 murine leukaemia (Tumor Models in Cancer Research., Teicher, B. A. ed., Humana Press Inc., Totowa, N.J., pp. 23-40, 2002), which is maintained by successive intraperitoneal transplantations in DBA/2 mice (DBA/2JIco, Charles River), as was described in prior art documents (Classic in vivo cancer models: Three examples of mouse models used in experimental therapeutics. Current Protocols in Pharmacology Unit 5.24: 5.24.1-5.24.16, 2001).
The experiment is carried out according to a protocol already described in prior art documents (Cancer Chemother. Pharmacol., 1998, 41, 437-447). This consists in implanting 10^6 cells of P388 leukaemia per mouse into C2DF1 hybrid mice (CD2F1/CrlBR, Charles River, St Aubin-les-Elbeuf, France) intravenously on day zero. After randomizing the animals in the treatment and control cages, the compounds to be evaluated are administered in a single injection intraperitoneally the day after the tumour graft, on day 1. The animals are subsequently monitored every day, weighed twice weekly and any clinical reaction is recorded. The survival is the parameter for evaluation of the antitumour activity. The increase in survival is defined by the T/Csurvival ratio (%), corresponding to: (Median of survival of the treated group/Median of survival of the control group)×100. A T/Csurvival ratio is calculated for each dose administered and the greatest value obtained represents the maximum increase in survival achieved (maximum activity), which is defined by the optimum T/Csurvival ratio. The results are illustrated in Table II, in which the optimum T/Csurvival values appear. […] Specifically, according to the criteria of the NCI (National Cancer Institute), a T/Csurvival value is regarded as significant if it is at least greater than 120% (Semin. Oncol., 1981, 8, 349-361). The relative loss in body weight of the animals, associated with the optimum activity of the compounds, is much less than the toxicity threshold, according to the criteria of the NCI (Ann. Oncol., 1994, 5, 415-422).

The subject of the next data set is DNA in A549 cells. Description: Comets test for detection of breakages of the DNA in cellulo. Format: cell-based, human. To be noted: 1 hour with 10 μM compound. As for the experimental part:
b) Test for Detection of Breakages of the DNA in Cellulo:
The comets test is used. The breakages of the DNA are detected in the A549 cells after incubating for 1 hour with 10 μM of each of the test compounds. […] For each compound, twenty-five cells are analysed and the mean Tail Moment (TM) is calculated using Komet software (Kinetic Imaging, UK).

Data set [1] can be described thus: Solubility in water of the hydrochloride. To be noted: water-soluble hydrochloride. Type of data set: physicochemical. An excerpt:
The compounds of the present invention have a solubility in water which makes possible a form of administration by infusion, by injection or by the oral route. They are provided in the form of their water-soluble hydrochloride, the solubility values of which are collated in Table II.

Data set [2] relates to MX-1 human mammary carcinoma. Kind of data set: MX-1 experimental tumour model (tumour volume). Format: in vivo, mouse. An excerpt: The model used is a human mammary carcinoma (Developmental Therapeutics Program, Division of Cancer Treatment, National Cancer Institute, In vivo Cancer Models 1976-1982. NIH Publication No. 84 2635, Washington D.C.: United States Government Printing Office, 1984), which is maintained by successive subcutaneous transplantations in Swiss Nude mice (Ico: Swiss-nu/nu, Iffa Credo, L'Arbresle, France), as was described above (Classic in vivo cancer models: Three examples of mouse models used in experimental therapeutics. Current Protocols in Pharmacology Unit 5.24: 5.24.1-5.24.16, 2001).
The experiment is carried out according to a protocol already described above (Cancer Chemother. Pharmacol., 1998, 41, 437-447). […] After randomizing the animals in their treatment and control cages, the compounds to be evaluated are administered intraperitoneally on day 7, 9, 11, 14, 16 and 18 after the grafting of the tumour. The animals are subsequently monitored every day, weighed twice weekly and any clinical reaction is recorded. The size of the tumour is measured three times weekly during the experiment. The tumour volume is calculated and the activity of the compounds on the size of the tumour is defined by the T/Cvolume ratio (%), corresponding to (Median tumour volume of the treated group/Median tumour volume of the control group)×100.

For data set [3], the system named is cells of the A549 human line (non-small-cell lung cancer). Kind of data set: Cytotoxicity test: inhibition of growth of A549 cells (ATP-Lite luminescence). Type of data set: cell-based. To be noted: 48 hours incubation. The protocol:
The test used is the inhibition of growth of cells of the A549 human line (non-small-cell lung cancer):
The A549 tumour cells are seeded in a 96-well plate in RPMI 1640 medium without phenol red (Seromed) to which 5% of foetal calf serum is added (100 μl/well, 125×10^4 cells/ml). After incubating at 37° C. for 24 hours in an incubator comprising 5% CO2, the medium is replaced with that comprising the test compound, after which the plates are incubated for an additional 48 hours. Cell survival is evaluated by measuring the luminescence after release of ATP into the medium using the cell lysis, luciferase and luciferin solutions present in the ATP-Lite-M™ kit as is recommended by the manufacturer (Packard, Rungis, France). Each experimental condition was tested at least three times as six identical copies. The results, expressed as IC50 (M), are collated in Table I and show the cytotoxicity of the compounds.

The next data set deals with B16 melanoma. Kind of data set: B16 experimental tumour model (tumour volume). Type of data set: in vivo, mouse. The note with it: C57BL/6 mice, s.c. B16, intraperitoneal on days 3, 5, 7 and 10; dose (mg/kg) in brackets. As for the experimental part: The model used is the B16 melanoma (Tumor Models in Cancer Research., Teicher, B. A. ed., Humana Press Inc., Totowa, N.J., pp. 23-40, 2002), which is maintained by successive subcutaneous transplantations in C57BL/6 mice (C57BL/6 NCrlBR, Charles River, St Aubin-les-Elbeuf, France), as was described above (Classic in vivo cancer models: Three examples of mouse models used in experimental therapeutics. Current Protocols in Pharmacology Unit 5.24: 5.24.1-5.24.16, 2001).
The experiment is carried out according to a protocol already described above. B16 tumour tissue is ground and homogenized in a 0.9% sterile sodium chloride solution using a Dounce homogenizer and then C57BLJ6 mice are inoculated subcutaneously into the flank with 0.5 ml of this 1 g/ml preparation on day zero. After randomizing the animals in the treatment and control cages, the compounds to be evaluated are administered intraperitoneally on days 3, 5, 7 and 10 after the grafting of the tumour. The animals are subsequently monitored every day, weighed twice weekly and any clinical reaction is recorded. The size of the tumour is measured three times weekly during the experiment. The tumour volume is calculated and the activity of the compounds on the size of the tumour is defined by the T/Cvolume ratio (%), corresponding to (Median tumour volume of the treated group/Median tumour volume of the control group)×100. […]

Take `COc1cc(C2c3cc4c(cc3C(NC(=O)CNCCN)C3COC(=O)C23)OCO4)cc(OC)c1O` (stereo not drawn) (as salt: hydrochloride): the melting point came to 236 °C.
As to `COc1cc(C2c3cc4c(cc3C(NC(=O)CNCCCCN)C3COC(=O)C23)OCO4)cc(OC)c1O` (stereo not drawn) [Example 25, 2-(4-aminobutylamino)-N-[9-(4-hydroxy-3,5-dimethoxyphenyl)-8-oxo-5,5a,6,8,8a,9-hexahydrofuro[3′,4′:6,7]naphtho[2,3-d][1,3]dioxol-5-yl]acetamide], the “P388 Model Optimum T/Csurvival (%)” value in the data set with P388 murine leukaemia was 129 [10] %. Moreover, the “TM (mean Tail Moment with respect to the TM of etoposide, taken to be unity)” value (“TM” below) in the data set with DNA in A549 cells turned out to be 1.09. The solubility in data set [1] was 100 mg/mL (≈ 190 mM). In addition, in data set [2] (Swiss Nude mice, s.c. MX-1, intraperitoneal on day 7, 9, 11, 14, 16 and 18, dose (mg/kg) in brackets), the “MX-1 Model Optimum T/Cvolume (%)” value is 51% and 51 [10] %. Moreover, inhibition in data set [3] (Homo sapiens) was half-maximal at 0.08 µM (IC50). Moreover, in the data set on B16 melanoma, the “B16 Model Optimum T/Cvolume (%)” value is 25% and 25 [20] %.
With `COc1cc(C2c3cc4c(cc3C(NC(=O)CNCCCCNCCCN)C3COC(=O)C23)OCO4)cc(OC)c1O` (stereo not drawn) (as salt: hydrochloride), the melting point is 199 °C.
Consider `COc1cc(C2c3cc4c(cc3C(NC(=O)CN3CCCCC3)C3COC(=O)C23)OCO4)cc(OC)c1O` (stereo not drawn) (as salt: hydrochloride), for which the melting point was in the range of 269 to 270 °C.
Take `CCC1=C[C@@H]2CN(C1)Cc1c([nH]c3ccccc13)[C@@](C(=O)OC)(c1cc3c(cc1OC)N(C)[C@H]1[C@@](O)(C(=O)OC)[C@H](OC(C)=O)[C@]4(CC)C=CCN5CC[C@]31[C@@H]54)C2` [Vinorelbine, reference compound]: the “TM” value in the data set with DNA in A549 cells turned out to be 0. Moreover, the midpoint of inhibition in data set [3] (Homo sapiens), the IC50, lay at 0.0037 µM.
As to `COc1cc(C2c3cc4c(cc3C(NC(=O)CN(C)C)C3COC(=O)C23)OCO4)cc(OC)c1O` (stereo not drawn) [Example 12, 2-dlmethylamino-N-[9-(4-hydroxy-3,5-dimethoxyphenyl)-8-oxo-5,5a,6,8,8a,9-hexahydrofuro[3′,4′:6,7]naphtho[2,3-d][1,3]dioxol-5-yl]acetamide], the “P388 Model Optimum T/Csurvival (%)” value in the data set with P388 murine leukaemia was 157 [2.5] %. In the data set on DNA in A549 cells, the “TM” value was 2.32. In addition, the “Solubility in water” value in data set [1] was found to be 16 mg/mL (≈ 33 mM). The compound further showed an IC50 in data set [3] of 0.2 µM.
With `COc1cc(C2c3cc4c(cc3C(NC(=O)CNCCCNCCCCNCCCN)C3COC(=O)C23)OCO4)cc(OC)c1O` (stereo not drawn) [Example 27, 2-{3-[4-(3-aminopropylamino)butylamino]propylamino}-N-[9-(4-hydroxy-3,5-dimethoxyphenyl)-8-oxo-5,5a,6,8,8a,9-hexahydrofuro[3′,4′:6,7]naphtho[2,3-d][1,3]dioxol-5-yl]acetamide], in the data set with P388 murine leukaemia, the “P388 Model Optimum T/Csurvival (%)” value is 129 [7.5] %. Further, the “TM” value with DNA in A549 cells is listed as 1.22. The compound also registered a solubility in data set [1] of 50 mg/mL (≈ 77.9 mM). Besides, the “effect on the tumour (in words)” value in data set [2] (MX-1, treatment of 2.5 mg/kg) was “complete eradication of the tumour”. In data set [3] (Homo sapiens), this compound gave an IC50 of 0.2 µM.
The compound `COc1cc(C2c3cc4c(cc3C(NC(=O)CN)C3COC(=O)C23)OCO4)cc(OC)c1O` (stereo not drawn) (as salt: hydrochloride) [Example 22, 2-amino-N-[9-(4-hydroxy-3,5-dimethoxyphenyl)-8-oxo-5,5a,6,8,8a,9-hexahydrofuro[3′,4′:6,7]naphtho[2,3-d][1,3]dioxol-5-yl]acetamide] yielded a melting point of 236 °C.
For the compound `COc1cc(C2c3cc4c(cc3C(NC(=O)CN)C3COC(=O)C23)OCO4)cc(OC)c1O` (stereo not drawn) [Example 22, 2-amino-N-[9-(4-hydroxy-3,5-dimethoxyphenyl)-8-oxo-5,5a,6,8,8a,9-hexahydrofuro[3′,4′:6,7]naphtho[2,3-d][1,3]dioxol-5-yl]acetamide], in the data set on DNA in A549 cells, the “TM” value amounted to 3.89. For the same compound, the midpoint of inhibition in data set [3] (Homo sapiens), the IC50, lay at 1 µM.
Take `COc1cc(C2c3cc4c(cc3C(NC(=O)CNCCCN)C3COC(=O)C23)OCO4)cc(OC)c1O` (stereo not drawn) (as salt: hydrochloride): the melting point came out at 219 °C.
As for `COc1cc(C2c3cc4c(cc3C(NC(=O)CNCCN(C)C)C3COC(=O)C23)OCO4)cc(OC)c1O` (stereo not drawn) [Example 9, 2-(2-dimethylaminoethylamino)-N-[9-(4-hydroxy-3,5-dimethoxyphenyl)-8-oxo-5,5a,6,8,8a,9-hexahydrofuro[3′,4′:6,7]naphtho[2,3-d][1,3]dioxol-5-yl]acetamide], the “P388 Model Optimum T/Csurvival (%)” value with P388 murine leukaemia is 157 [10] %. The “TM” value in the data set with DNA in A549 cells is 2.81. This compound came in with a solubility in data set [1] of 100 mg/mL (≈ 190 mM). This compound returned a half-maximal inhibitory concentration (IC50) in data set [3] (Homo sapiens) of 6 µM.
Take `COc1cc(C2c3cc4c(cc3C(NC(=O)CNCCCNCCCCNCCCN)C3COC(=O)C23)OCO4)cc(OC)c1OC` (stereo not drawn) (as salt: hydrochloride): the melting point came out at 209 °C.
Consider `COc1cc(C2c3cc4c(cc3C(NC(=O)CNCCCNCCCCN)C3COC(=O)C23)OCO4)cc(OC)c1O` (stereo not drawn) (as salt: hydrochloride) [Example 31, 2-[3-(4-aminobutylamino)propylamino]-N-[9-(4-hydroxy-3,5-dimethoxyphenyl)-8-oxo-5,5a,6,8,8a,9-hexahydrofuro[3′,4′:6,7]naphtho[2,3-d][1,3]dioxol-5-yl]acetamide], for which the melting point came to 255 °C.
